# Experimental data published in patent US12364709B2, “Bioavailable poly amines” (AMINEX THERAPEUTICS, INC., priority 2016, dated 2025).
# Experiments:
# [1] = Pharmacokinetic analysis of AMXT 1501 salt forms, single oral tablet dose; assay type: in vivo, beagle dogs
# From the text: Following dose administration all the animals had serial blood collections. Table 18 provides pharmacokinetic data obtained using the various salt forms of AMXT 1501 following single PO dosing to dogs. In Table 18, Group 1 received the free base form of AMXT 1501, Group 2 received the dicholate salt of AMXT 1501, Group 3 received the phosphate salt form of AMXT 1501, and Group 4 received the dicaprate salt form of AMXT 1501. […] In Table 18, SD refers to standard deviation and CV % refers to coefficient of variability.
# [2] = cited from earlier work
# [3] = cited from earlier work; remark: listed apart in the source
# [4] = 3 h intravenous infusions; cited from earlier work
# [5] = single PO dose 16.0 mg/kg (2 x 80 mg tablets), plasma AMXT 1501
# [6] = single PO dose 16.0 mg/kg (2 x 80 mg tablets), plasma AMXT 1501, 16 mg/kg
# [7] = single PO dose 16.0 mg/kg, plasma AMXT 1501, 16 mg/kg
# [8] = single PO dose 16.0 mg/kg, t=24 hours, plasma AMXT 1501, 16 mg/kg
smiles,measurement,setting,value
CCCCCCCCCCCCCCCC(=O)NCCCC[C@@H](N)C(=O)NCCCNCCCCNCCCN [AMXT 1501 free base],Tmax Median,[1]; [5],6.00 h
same,Tmax Min.,[1]; [5],6.00 h
same,Cmax Max.,[1]; [6],468 ng/mL
same,Cmax Mean,[1]; [6],250 ng/mL
same,Cmax Median,[1]; [6],250 ng/mL
same,Cmax Min.,[1]; [6],31.3 ng/mL
same,Tmax Max.,[1]; [6],12.0 h
same,Tmax Mean,[1]; [6],8.00 h
same,t1/2 Max.,[1]; [7],9.76 h
same,t1/2 Mean,[1]; [7],9.76 h
same,t1/2 Median,[1]; [7],9.76 h
same,t1/2 Min.,[1]; [7],9.76 h
same,AUC0-t Max.,[1]; [8],8450 ng·h/mL
same,AUC0-t Mean,[1]; [8],4710 ng·h/mL
same,AUC0-t Median,[1]; [8],5330 ng·h/mL
same,AUC0-t Min.,[1]; [8],363 ng·h/mL
same,inter-animal consistency of plasma AMXT 1501 levels,"[1]; single oral delivery, FIGS. 5A-5D",variable drug levels
"CCNCCCCNCCCCNCCCCNCC [DEHSpm, N1,N14-diethylhomospermine]",drug in plasma,[2]; 2-4 hrs. post-injection,not observed
same,objective response,[2]; solid tumor patients,None of the 15 patients
c1cc(CN2CCCNCCNCCCNCC2)ccc1CN1CCCNCCNCCCNCC1 [Mozobil],clearance by,"[3]; subcutaneous 40-360 μg/kg, healthy volunteers",≤ 10 h
same,Plasma half-life,[3]; subcutaneous,3 h
N=C(N)NCCCCCCC(=O)NC(O)C(=O)NCCCCNCCCN (stereo not shown) [deoxyspergualin],half-life,[4],1.8 h
